In patent US20200197341A1, “IMMUNMODULATION FOR PREVENTION OF POOR HEALING OF MUSCULOSKELETAL INJURIES IN COMPROMISED PATIENTS” (CHARITÉ UNIVERSITÄTSMEDIZIN BERLIN, priority 2017, published 2020):
Entries after “also recorded” stand apart in the source; their conditions may differ.

Key:
[1] = system: drill hole in the diaphyseal and metaphyseal bone; assay: Sheep drill hole bone healing model, μCT evaluation of bone formation; format: in vivo; conditions: after 3 and 9 weeks, Iloprost in collagen scaffold (burst release), applied immediately, 1 ml Ilomedin per two scaffolds
From the text: Prior publications, e.g. US 20150164853 A1, stated that immediate use of Iloprost locally to enhance bone healing is beneficial. To investigate this a high dose of Iloprost was used in a sheep bone healing model where the agent was applied in a collagen scaffold, which has a burst-release dynamic.
Bone formation has been analyzed in a drill hole model (Establishment of a preclinical ovine screening model for the investigation of bone tissue engineering strategies in cancellous and cortical bone defects. Pobloth A M, Johnson K A, Schell H, Kolarczik N, Wulsten D, Duda G N, Schmidt-Bleek K. BMC Musculoskelet Disord. 2016 Mar. 1; 17:111.). The empty control group and the collagen only group were used as negative controls while the autologous spongiosa group, the current gold standard in bone therapy, was used as a positive control. In the Ilomedin group a supraphysiological dosis of 1 ml Iloprost (Ilomedin, […] Infusionslosung, Bayer Vital GmbH, Leverkusen, Deutschland) per two scaffolds was used.

femur mouse osteotomies = assay: Mouse femur osteotomy with fibrin release system, μCT of newly formed bone; format: in vivo
Experimental: Mouse experiments were performed with 12-week-old C57BL/6 females (n=6, each sample type) (Charles River Laboratories) according to the policies and principles established by the Animal Welfare Act, the National Institutes of Health Guide for the Care and Use of Laboratory Animals, and the National Animal Welfare Guidelines. All animal experiments were approved by the local legal representative. Animals were kept under obligatory hygiene standards that were monitored according to the FELASA standards.
The osteotomy was performed on the left femur. After shaving and disinfecting the operation area of isoflurane-anesthetized animals, a lateral longitudinal incision of the skin (2 mm) from knee to hip was performed for a mid-diaphyseal approach to the femur. The femur was exposed by blunt preparation of Musculus vastus lateralis and Muscculus biceps femoris, carefully sparing the sciatic nerve. Serial drilling for pin placement (0.45 mm diameter) through the connector bar of the external fixator (MouseExFix, RlSystem, Davos, Switzerland) was performed, thus positioning the external fixator laterally in parallel to the femur. A 0.70 mm osteotomy was performed between the middle pins using a Gigli wire saw (RISystem, Davos, Switzerland). […]
The newly formed mineralized bone tissues were analyzed using high-resolution micro computed tomography (μCT). […]

CC#CCC(C)[C@H](O)/C=C/[C@@H]1[C@H]2C/C(=C/CCCC(=O)O)C[C@H]2C[C@H]1O (stereo partly drawn) [Iloprost]
bone formation in a drill hole (μCT) [1]: No differences between the collagen group and the collagen Iloprost loaded group; also recorded: no enhanced bone formation was detectable | newly formed bone volume (BV) (femur mouse osteotomies; mouse femur osteotomy, 21 days healing, fibrin release system with 3 μM Iloprost in core, median, N=6, p=0.016 vs vehicle): 1.347 mm^3 | volumes of newly formed bone vs empty vehicle control (μCT) (femur mouse osteotomies; mouse, after 21 days of regeneration, Iloprost loaded release system): significantly increased volumes of newly formed bone
